This note sets out measurements from patent publication US6737425B1, “N,N-substituted cyclic amine derivatives” (Eisai Co., Ltd., priority 1998, dated 2004).

Counter-ions that a name gives are not always drawn. Bounds are passed on as bounds.

What is called IC50 is the concentration that inhibits the measured activity by half.

The first assay has as its system voltage-dependent calcium channels (cerebral cortex synaptosome). In words: Measurement of voltage-dependent calcium channel activity by the use of a fluorescent pigment (fura 2). Format: cell-based. As to conditions: rat cerebral cortex synaptosome, fura 2, KCl stimulation, compound incubated 10 minutes. On the procedure:
Measurement of Voltage-dependent Calcium Channel Activity by the use of a Fluorescent Pigment (fura 2)
Cerebral cortexes were removed from cut rat brains and disrupted roughly with scissors. These were introduced into a homogenizer, homogenized in 0.3 M saccharose and centrifuged at 4° C. (1,500 g×10 min). The resulting supernatant was further centrifuged at 4° C. (10,000 g×20 min). The resulting precipitates were suspended in 0.3 M saccharose. The suspension was layered on 0.8 M saccharose and centrifuged (10,000 g×30 min.).
4 μM fura 2/AM (Dojin Ltd.) was suspended in solution A to prepare a loading solution. To the synaptosome solution prepared in the method described above was added an equal volume of the loading solution, and the mixture was incubated for 40 minutes at room temperature.
As comparative and control compound, verapamil hydrochloride was used.
On to `CCCC(C#N)(CCCN1CCN(CCOc2ccc(F)cc2)CC1)c1ccccc1` (centres unmarked) [Example 27, 1-[(4-Cyano-4-phenyl)heptyl]-4-[2-(4-fluorophenoxy)ethyl]piperazine], for which the IC50 is 4.6 µM.

As to `CC(C)C(C#N)(CCCN1CCN(CCOc2cccc(-c3ccsc3)c2)CC1)c1ccccc1` (centres unmarked) [Example 117, 1-[(4-Cyano-5-methyl-4-phenyl)hexyl]-4-{2-[3-(3-thienyl)phenoxy]ethyl}piperazine], the IC50 was 3.2 µM.

For `CC(C)C(C#N)(CCCN1CCN(CC(=O)Nc2ccc(F)cc2)CC1)c1ccccc1` (centres unmarked) [Example 65, 1-[(4-Cyano-5-methyl-4-phenyl)hexyl]-4-[N-(4-fluorophenyl)carbamoylmethyl]piperazine], the IC50 is > 16 µM.

Regarding `CC(C)C(C#N)(CCCN1CCN(CCN(C)S(=O)(=O)c2ccc(F)cc2)CC1)c1ccccc1` (centres unmarked) [Example 69, 1-[(4-cyano-5-methyl-4-phenyl)hexyl]-4-[2-(N-methyl-4-fluorobenzenesulfonylamino)ethyl]piperazine], the half-maximal inhibitory concentration (IC50) turned out to be 9.2 µM.

Take `CC(C)C(C#N)(CCCN1CCN(CCOc2ccc(F)cc2)CC1)c1ccc(C#N)cc1` (centres unmarked) [Example 15, 1-[4-Cyano-5-methyl-4-(4-cyanonphenyl)hexyl]-4-[2-(4-fluorophenoxy)ethyl]piperazine]: the IC50 is 9.8 µM.

For the molecule `CC(C)C(C#N)(CCCN1CCN(CCOc2ncnc3ccccc23)CC1)c1ccccc1` (centres unmarked) [Example 105, 1-[(4-Cyano-5-methyl-4-phenyl)hexyl]-4-[2-(4-quinazolinyloxy)ethyl]piperazine], the IC50 is > 16 µM.

As for `CC(C)N(CCN1CCN(CCCC(C#N)(c2ccccc2)C(C)C)CC1)c1ccccc1` (centres unmarked) [Example 89, 1-[(4-Cyano-5-methyl-4-phenyl)hexyl]-4-[2-(N-isopropylanilino)ethyl]piperazine], the IC50 is 2.7 µM.

With `CC(C)C(C#N)(CCCN1CCN(CCNc2ccc(F)cc2)CC1)c1ccccc1` (centres unmarked) [Example 51, 1-[(4-Cyano-5-methyl-4-phenyl)hexyl]-4-[2-(4-fluorophenylamino)ethyl]piperazine], the IC50 was 7.5 µM.

As to `CC(C)c1ccc(N(C)CCN2CCN(CCCC(C#N)(c3ccccc3)C(C)C)CC2)cc1` (centres unmarked) [Example 91, 1-[(4-Cyano-5-methyl-4-phenyl)hexyl]-4-{2-[N-methyl(4-isopropylanilino)ethyl]}piperazine], the IC50 turned out to be 2.1 µM.

On to `CC(C)C(C#N)(CCCN1CCN(CCOc2ccccc2C#N)CC1)c1ccccc1` (centres unmarked) [Example 46, 1-[(4-Cyano-5-methyl-4-phenyl)hexyl]-4-[2-(2-cyanophenoxy)ethyl]piperazine], for which the IC50 came out at 16 µM.

With `CCCC(CCC(C#N)(c1ccccc1)C(C)C)N1CCN(CCOc2ccc(F)cc2)CC1` (centres unmarked) [Example 98, 1-{[4-(7-Cyano-8-methyl-7-phenyl)nonyl]}-4-[2-(4-fluorophenoxy)ethyl]piperazine], the IC50 is > 16 µM.

Regarding `CC(C)C(C#N)(CCCN1CCN(CCOc2ccc(N(C)C)cc2)CC1)c1ccccc1` (centres unmarked) [Example 43, 1-[(4-Cyano-5-methyl-4-phenyl)hexyl]-4-[2-(4-dimethylaminophenoxy)ethyl]piperazine], the IC50 amounted to 13 µM.

As for `CC(C)C(C#N)(CCCN1CCN(CCSc2ccc(F)cc2)CC1)c1ccccc1` (centres unmarked) [Example 49, 1-[(4-Cyano-5-methyl-4-phenyl)hexyl]-4-[2-(4-fluorophenylthio)ethyl]piperazine], the IC50 is 4.8 µM.

On to `CC(C)C(C#N)(CCCN1CCN(CCCCOc2ccccc2)CC1)c1ccccc1` (centres unmarked) [Example 6, 1-[(4-Cyano-5-methyl-4-phenyl)hexyl]-4-(4-phenoxybutyl)piperazine], for which the IC50 was determined as 2.7 µM.

On to `CC(C)C(C#N)(CCCN1CCN(CCOc2cccc3cnccc23)CC1)c1ccccc1` (centres unmarked) [Example 96, 1-[(4-Cyano-5-methyl-4-phenyl)hexyl]-4-[2-(5-isoquinolyloxy)ethyl]piperazine], for which the IC50 was 5.4 µM.

As to `Cc1cccc(/C=C/c2ccccc2OCCN2CCN(CCCC(C#N)(c3ccccc3)C(C)C)CC2)n1` (centres unmarked) [Example 118, 1-[(4-Cyano-5-methyl-4-phenyl)hexyl]-4-{2-[2-(6-methyl-2-pyridyl)vinylphenoxyl]ethyl}piperazine], the 50% inhibitory concentration (IC50) was 6.4 µM.

For `CC(C)C(C#N)(CCCN1CCN(CCCCCOc2ccc(F)cc2)CC1)c1ccccc1` (centres unmarked) [Example 33], the IC50 was determined as 3.4 µM.

With `CC(C)C(C#N)(CCCN1CCN(CCOc2ccc(F)cc2)CC1)c1ccc([N+](=O)[O-])cc1` (centres unmarked) [Example 16, 1-[4-Cyano-5-methyl-4-(4-nitrophenyl)hexyl]-4-[2-(4-fluorophenoxy)ethyl]piperazine], the IC50 was 4.8 µM.

For the molecule `CC(C)C(C#N)(CCCN1CCN(CC(O)COc2ccc(F)cc2)CC1)c1ccccc1` (centres unmarked) [Example 62, 1-[(4-Cyano-5-methyl-4-phenyl)hexyl]-4-[2-hydroxy-3-(4-fluorophenoxy)propyl]piperazine], the half-maximal inhibitory concentration (IC50) is 8.8 µM.

On to `CC(C)C(C#N)(CCCN1CCN(CCNS(=O)(=O)c2ccc(F)cc2)CC1)c1ccccc1` (centres unmarked) [Example 66, 1-[(4-Cyano-5-methyl-4-phenyl)hexyl]-4-[2-(4-fluorobenzenesulfonylamino)ethyl]piperazine], for which the IC50 stood at 8.2 µM.

In the case of `CC(C)C(C#N)(CCCN1CCN(CCOc2ccc3c(c2)OCO3)CC1)c1ccccc1` (centres unmarked) [Example 94, 1-[(4-Cyano-5-methyl-4-phenyl)hexyl]-4-{2-[3,4-(methylenedioxy)phenoxy]ethyl}piperazine], the IC50 was found to be 6.1 µM.

For the molecule `COc1ccc(CCN(C)CCCC(C#N)(c2ccc(OC)c(OC)c2)C(C)C)cc1OC` (centres unmarked) [Control, verapamil hydrochloride, reference compound], the IC50 is > 16 µM.

As to `CC(C)C(C#N)(CCCN1CCN(CCOc2ccc3ncccc3c2)CC1)c1ccccc1` (centres unmarked) [Example 95, 1-[(4-Cyano-5-methyl-4-phenyl)hexyl]-4-[2-(6-quinolyloxy)ethyl]piperazine], the IC50 was determined as 11 µM.

Turning to `CC(C)C(C#N)(CCC(=O)N1CCN(CCOc2ccc(F)cc2)CC1)c1ccccc1` (centres unmarked) [Example 122, 1-[(4-Cyano-5-methyl-4-phenyl)hexanoyl]-4-[2-(4-fluorophenoxy)ethyl]piperazine], the IC50 was 12 µM.

For `CC(C)C(C#N)(CCCCN1CCN(CCOc2ccc(F)cc2)CC1)c1ccccc1` (centres unmarked) [Example 34], the IC50 came out at 3.8 µM.

On to `CC(C)C(C#N)(CCCN1CCN(CCS(=O)(=O)N(C)c2ccc(F)cc2)CC1)c1ccccc1` (centres unmarked) [Example 68, 1-[(4-Cyano-5-methyl-4-phenyl)hexyl]-4-{2-[N-(4-fluorophenyl)-N-methylsulfamoyl]ethyl}piperazine], for which the IC50 was determined as 8.7 µM.

As to `CC(C)C(C#N)(CCCN1CCN(CCOc2cccc3ncccc23)CC1)c1ccccc1` (centres unmarked) [Example 101, 1-[(4-Cyano-5-methyl-4-phenyl)hexyl]-4-[2-(5-quinolyloxy)ethyl]piperazine], the IC50 worked out at 9.2 µM.

For `CC(C)C(C#N)(CCCN1CCN(CCOc2cccc(C#N)c2)CC1)c1ccccc1` (centres unmarked) [Example 119, 1-[(4-Cyano-5-methyl-4-phenyl)hexyl]-4-[2-(3-cyanophenoxy)ethyl]piperazine], the IC50 was found to be 7.7 µM.

In the case of `CC(C)C(C#N)(CCCN1CCN(CCOc2ccc(F)cc2)CC1)c1ccc(Cl)c(Cl)c1` (centres unmarked) [Example 37, 1-{[4-Cyano-5-methyl-4-(3,4-dichlorophenyl)hexyl]}-4-[2-(4-fluorophenoxy)ethyl]piperazine], the IC50 stood at 2.7 µM.

On to `CC(C)C(C#N)(CCCN1CCN(CCOc2ccc(Br)cc2)CC1)c1ccccc1` (centres unmarked) [Example 108, 1-[(4-Cyano-5-methyl-4-phenyl)hexyl]-4-[2-(4-bromophenoxy)ethyl]piperazine], for which the IC50 is 3.3 µM.

Regarding `CC(C)C(C#N)(CCCN1CCCN(CCOc2ccc(F)cc2)CC1)c1ccccc1` (centres unmarked) [Example 3], the IC50 amounted to 4.8 µM.

For `CC(C)C(C#N)(CCN1CCN(CCCOc2ccc(F)cc2)CC1)c1ccccc1` (centres unmarked) [Example 5, 1-[(3-Cyano-4-methyl-3-phenyl)pentyl]-4-[3-(4-fluorophenoxy)propyl]piperazine], the IC50 is 7.7 µM.

For `CC(C)C(C#N)(CCCN1CCN(CCOc2ccc(F)cc2)CC1)c1ccc(O)cc1` (centres unmarked) [Example 83, 1-[4-Cyano-5-methyl-4-(4-hydroxyphenyl)hexyl]-4-[2-(4-fluorophenoxy)ethyl]piperazine], the IC50 came to 13 µM.

For `CC(C)C(C#N)(CCCN1CCN(CCOc2ccccc2-c2cccnc2)CC1)c1ccccc1` (centres unmarked) [Example 113, 1-[(4-Cyano-5-methyl-4-phenyl)hexyl]-4-{2-[2-(3-pyridyl)phenoxy]ethyl}piperazine], the IC50 amounted to 4.5 µM.

Turning to `CCCCC(C#N)(CCCN1CCN(CCOc2ccc(F)cc2)CC1)c1ccccc1` (centres unmarked) [Example 29, 1-[(4-Cyano-4-phenyl)octyl]-4-[2-(4-fluorophenoxy)ethyl]piperazine], the IC50 came out at 4 µM.

The assay is the same for the next values; noted with them: rat cerebral cortex synaptosome, fura 2, KCl stimulation, compound incubated 10 minutes; Hydrochloride.
As for `CC(C)C(C#N)(CCN1CCN(CCOc2ccc(F)cc2)CC1)c1ccccc1` (single isomer, unassigned; (+)) [Example 78, (+)-1-[(3-Cyano-4-methyl-3-phenyl)pentyl]-4-[2-(4-fluorophenoxyl)ethyl]piperazine Hydrochloride], the IC50 came to 15 µM.

`N#CC(CCCN1CCN(CCOc2ccc(F)cc2)CC1)(c1ccccc1)C1CCCCC1` (single isomer, unassigned; (+)) [Example 80, (+)-1-[(4-Cyano-4-cyclohexyl-4-phenyl)butyl]-4-[2-(4-fluorophenoxyl)ethyl]piperazine Hydrochloride]: the IC50 is 3.8 µM.

As for `CC(C)C(C#N)(CCN1CCN(CCOc2ccc(F)cc2)CC1)c1ccccc1` (single isomer, unassigned; (-)) [Example 77, (−)-1-[(3-Cyano-4-methyl-3-phenyl)pentyl]-4-[2-(4-fluorophenoxyl)ethyl]piperazine Hydrochloride], the half-inhibitory concentration (IC50) stood at 7.5 µM.
